Test results taken from patent US9562082B2, “Production of glycoproteins with low N-glycolylneuraminic acid (Neu5Gc) content” (LEK Pharmaceuticals D.D., priority 2009, dated 2017).

How the values were obtained:
Type in all cases: cell-based, Chinese hamster
Recombinant CHO cells [1] = assay: Titre of secreted glycoprotein by ELISA
Method: (§1) Cell viability was determined by the trypan blue exclusion method. The cell concentration was determined using a Vi-CELL™ Series Cell Viability Analyzer (Beckman Coulter, Fullerton, Calif., USA). Glucose, lactate, glutamine, and ammonia (NH4^+) concentrations were measured during the growth phase using a BioProfile Analyzer for mammalian cell culture (BioProfile 100 plus, Nova Biomedical, Waltham, USA). Additionally, oxygen and […] concentrations were monitored daily using pHOx (Stat Prophile pHOx Basic, Nova Biomedical, Waltham, USA). Secreted glycoprotein concentrations were quantified by enzyme linked immunosorbent assay (ELISA), and the titres were expressed in μg/ml.
The concentration of the secreted glycoproteins was quantified using an enzyme linked immunosorbent assay kit from R&D Systems (R&D Systems, Inc., Minneapolis, Minn., USA) according to the manufacturer's instructions. Microplate wells, pre-coated with monoclonal (mouse) antibodies specific for the respective glycoproteins expressed were first incubated with standard blank samples and specimens. […] The absorbance of the coloured solution was measured photometrically at 450 nm (Micro plate reader, Tecan, Columbus, USA) and was proportional to the concentration of the glycoprotein in the sample.

Recombinant CHO cells [2] = assay: Content of the most acidic isoforms 7 and 8 (degree of sialylation) of secreted glycoprotein by AEX; conditions: for percentage of the most acidic isoforms: 0.75% (w/v) DMSO
Method: Throughout the entire description, above and below and including the examples, unless explicitly stated otherwise, the degree of sialylation is given in % (w/w) and was calculated as follows. Since the inventor had not available a method to directly measure the degree of sialylation (%, w/w), she estimated same indirectly from the relative content of the most acidic isoforms of each glycoprotein. Since isoforms 7 and 8 (see next paragraph) are the most acidic ones, she figured out that an increase of isoforms 7 and 8 is an indicator for the increased degree of sialylation. The inventor measured the distribution of the isoforms of a particular glycoprotein (e.g., of darbepoetin alfa, which is a cytokine) with AEX (anion exchange chromatography). AEX is not a quantitative method. Therefore, the inventor split the histogram into three parts as follows: the most basic isoforms 1, 2, and 3, the middle acidic isoforms 4, 5, and 6, and the most acidic isoforms 7 and 8. […] Therefore, the inventor compared, for each glycoprotein tested, the content (%, w/w) of the most acidic isoforms resulting from media without and from media with the additives according to the invention. In case their content increased, the inventor concluded that the degree of sialylation had likewise increased. Therefore, the degree of sialylation in the present application is given as the relative content of the most acidic isoforms (%, w/w). The increase in the degree of sialylation (of a particular glycoprotein obtained from a host cell culture using a medium with the additives according to the present invention vs. that of said glycoprotein obtained from a host cell culture using a medium without the inventive additives) is given on the basis of the increase of the content of the most acidic isoforms (%) after cultivating the host cells in the presence vs. absence of said additives. Recombinant CHO cells expressing high titres of the glycosylated human glycoproteins were cultivated in suspension culture using rich in-house standard medium without additives according to the invention. After 2 weeks of passages, the cells were first harvested and subsequently inoculated into the same medium, however, supplemented with a range of DMSO concentrations from 0.25% to 1.50% (w/v). The effect of DMSO on growth, productivity, degree of sialylation, and Neu5Gc content was studied. “One factor at the time”-experiments with different DMSO concentrations at 37° C. and 33° C., respectively, were performed at first in an attempt to determine the DMSO concentration and temperature which are best to minimise the Neu5Gc content on the glycoproteins secreted. To study the interaction between the parameters (i) DMSO concentration, (ii) time of DMSO addition, and (iii) time of the temperature shift (from 37° C. to 33° C.), further experiments were performed with the Design-Expert/Design-Ease programme (Stat-Ease, Inc., Minneapolis, Minn., USA) using the response surface method. Parameters (i), (ii), and (iii) were chosen as numeric factors and the axial points were set slightly out of already known ranges in order to cover a wide design space. One replicate on axial points, one replicate on factorial points and 4 centre points were performed. The results were analysed using the Design of Expert (DOE) software (Design-Expert, Version 7.1). The results of the shake flask experiments were confirmed in the Biostat®B bioreactor (Sartorius, B. Braun Biotech International, Germany). Exponentially growing cells were taken from cell culture flasks having a surface area of 225 cm^2 (Corning®Costar®). A Biostat®B bioreactor with a working volume of 5 litres was inoculated with 2×10^5 cells/ml. […] Following glycoprotein purification, the isoform distribution of the immuno-affinity purified glycoproteins was determined by anion exchange chromatography (AEX). The chromatographic separation of various isoforms is based on the differences in their charges. […]

Recombinant CHO cells [3] = assay: Cell viability by trypan blue exclusion; conditions: 8 day batch cultures, all DMSO concentrations, times of addition and temperatures tested
Method: as §1
Initially, the inventor avoided the addition of DMSO to the cell culture at the beginning of the bioprocess, because […] speculated that such addition might not be optimal, since the cells had no time for an optimal lag phase-growth (adaptation). […] Viable cell density and viability of the cells were measured in the middle and at the end of that period. The final titre (concentration of each glycoprotein in the culture medium) was measured in the supernatants with ELISA. […] The content of Neu5Gc on the purified glycoproteins was determined, and the acidic isoform distribution reflecting the degree of sialylation was measured with AEX.

Recombinant CHO cells [4] = assay: Specific growth rate; conditions: DMSO 0.75, temperature 37
Method: The specific growth rate was calculated following Equation 2 and represents the overall biomass accumulation under the growth curve from the beginning to the end of the batch process (expressed as a logarithmic value per day (day^−1)). Specific growth rate=ln(X2/X1)/(t2−t1) Equation 2 (X1 is the number of viable cells on day 0 and X2 the number of cells at the end of the repeated batches, respectively. t1 is time 0, and t2 is time 7 or the end day of the process, respectively.)

Q: What does the source list for `C[S+](C)[O-]` [DMSO, dimethyl sulfoxide]?
A: Titre, DOE point prediction (Recombinant CHO cells [1]; DMSO 0.75, temperature 37): 65.56 µg/mL; titre (Recombinant CHO cells [1]; darbepoetin alfa, with DMSO): ~57 µg/mL; average content of the most acidic isoforms, all glycoproteins tested (Recombinant CHO cells [2]; 0.5% DMSO): 1.31%; average content of the most acidic isoforms, all glycoproteins tested (Recombinant CHO cells [2]; 0.75% DMSO): 1.28%; average content of the most acidic isoforms, all glycoproteins tested (Recombinant CHO cells [2]; 1% DMSO): 1.21%; average content of the most acidic isoforms, all glycoproteins tested (Recombinant CHO cells [2]; 1.25% DMSO): 1.26%; Isoforms 7&8, DOE point prediction (Recombinant CHO cells [2]; DMSO 0.75, temperature 37): 1.21%; percentage of the most acidic isoforms (Recombinant CHO cells [2]; bioreactor batch process): about 2.2%; percentage of the most acidic isoforms (Recombinant CHO cells [2]; shake flask batch process): about 1.35%; final cell viability (Recombinant CHO cells [3]): above 97.5%; Specific growth rate, DOE point prediction (Recombinant CHO cells [4]): 0.54 day⁻¹
